# Test results from publication PMC3161871, “Heteroarylketones inhibit astroglial interleukin-6 expression via a STAT3/NF-κB signaling pathway” (Journal of Neuroinflammation, 2011).
# Key:
# [1] = test system: LPS-induced IL-6 release in primary mouse astrocytes; assay: LPS-induced IL-6 release in primary mouse astrocytes (ELISA); type: cell-based; details: 1 μg/ml LPS, 20 μM compound, 24 h
# Experimental: (§1) According to Löffler, astrocyte-rich primary cell cultures were started with brains of newborn mice and rats and were maintained in Dulbecco's modified Eagle's medium (DMEM) for 33 days at 37°C in a humified atmosphere with 95% air/5% CO2.
# (§2) Measurements of IL-6 in conditioned medium and murine plasma samples were done by means of human- or murine-specific IL-6 Cytoset kits (Invitrogen, Darmstadt, Germany) according to manufacturer's protocols.
# (§3) Figure 5 Suppression of LPS-induced IL-6 release in primary murine astrocytes by selected HAK compounds. […] Astrocytes derived from newborn mice and rats were cultivated for 33 days followed by stimulation with 1 μg/ml LPS and treatment with compounds HAK-2 and HAK-5 (20 μM). After 24 hours conditioned media were analyzed with IL-6 specific ELISA. Data (mean ± SD) were obtained from experiments carried out in quadruplicate and statistical analysis was performed using the paired t test. Amount of IL-6 in LPS-treated control sample was set to 100%. ns, not significant; **p < 0.01; ***p < 0.001.
# (§4) Primary murine astrocytes stimulated with 1 μg/ml LPS were co-treated with compounds HAK-2 and HAK-5 at a concentration of 20 μM each for 24 h. The observed effect of compounds HAK-2 and HAK-5 on LPS stimulation was similar to that of OSM-induced IL-6 expression in human U343 glioma cells (Figures 5A and 5B). […]
# [2] = test system: LPS-induced IL-6 release in primary rat astrocytes; assay: LPS-induced IL-6 release in primary rat astrocytes (ELISA); type: cell-based; details: 1 μg/ml LPS, 20 μM compound, 24 h
# Experimental: as §1, §2, §3, §4
structure (smiles),measurement,setting,value
"C[C@H](NC(=O)OCc1ccccc1)C(=O)N1CCC[C@H]1C(=O)c1nc2ccccc2s1 [HAK-2, Z-Ala-Pro-BTh]",Reduction of LPS-induced IL-6 expression,[1],60%
same,Reduction of LPS-induced IL-6 expression,[2],50%
